# Source: patent US9624161B2 (priority 2009, dated 2017)
# Legend:
# human platelets = experiment: In vitro human platelet aggregation assay (thrombin-induced)
# Human 17β-HSD5 = biological target: T1, Human 17β-HSD5 (Homo sapiens, UniProt P42330); experiment: 17β-HSD5 enzyme activity (14C androstenedione to testosterone, TLC); assay type: biochemical; conditions: purified protein, NADPH (FIG. 3)
# T1 construct: GST (inferred from pGEX 4t1 vector; own knowledge) (N); made in house
# [1] = test system: morphine dependent rat model; experiment: Morphine dependent rat model of hot flashes (tail skin temperature); assay type: in vivo; conditions: 5, 10, 15 and 30 mg/kg (FIG. 13)
# Method: In addition to the similarities to the human condition, this experimental animal model has a short turn around time which makes it a useful high throughput screening tool for identifying compounds that can alleviate vasomotor symptoms using the tail skin temperature (TST). TST probes TA-40 (Data Sciences International, MN) were taped to the base of the tails and baseline temperatures were obtained for 15 minutes. After 15 minutes the animals were treated with naloxone (1 mg/kg, SQ) to reverse the effects of the morphine. Tail skin temperature (TST) was measured for one hour post-naloxone treatment with a sampling frequency of 5 secs throughout the course of the experiment. Following the data acquisition, the moving average of the temperature recorded every 60 seconds for each animal was calculated and further analyzed. Baseline temperature was computed as the average temperature acquired over the 15 minutes preceding naloxone administration. The area under the curve (AUC) was calculated by subtracting all the values post-naloxone administration from the baseline using a linear trapezoid method.
# [2] = test system: men with advanced prostate cancer; experiment: Study 2: Phase 2 trial in men with advanced prostate cancer, Compound IV 1000 or 2000 mg daily versus leuprolide depot; assay type: in vivo, human; conditions: for Castrated (%) at Day 28 / Castrated (%) on both Day 28 and Day 60 / No. Castrated at Day 28 / No. Castrated on both Day 28 and Day 60: ITT; for Subjects that achieved castration (total T<50 ng/dL) by Day 60: subjects that reached Day 60; for % Reduction on PSA at Day 28 / Mean Free T at Day 28 / Mean Total T at Day 28: subjects castrated on both day 28 and day 60; for Castration (%): patients receiving >14 days; for Median free testosterone: Day 120; for Median increase in SHBG: Day 90
# Method: This was a prospective, randomized 1:1:1, Phase 2 open-label, multicenter, trial comprised of men with advanced prostate cancer (n=159) initiating ADT with either oral daily doses of 1000 mg Compound IV, oral daily doses of 2000 mg Compound IV, or leuprolide depot (Lupron Depot® 4 month). It was conducted according to the Declaration of Helsinki, approved by appropriate research ethics committees, and each patient provided signed informed consent prior to registration and randomization. Patient demographlics are outlined in Table 24.
# The trial required each subject to remain on the study for at least 60 days. […] Subjects that achieved castration by day 60 continued for up to 360 days to assess the safety of Compound IV over this dosing duration and to assess the maintenance of total testosterone levels ≦50 ng/dL.
# The major inclusion criteria for the trial were: Males between 45-80 years of age; ECOG ≦2; screening serum total testosterone ≧150 ng/dL; no prior ADT (medical or surgical) unless the subject had been treated with LHRH agent for ≦6 months duration and that treatment was ≧1 years prior to screening.
# The primary endpoint of the clinical trial was the proportion of patients that achieve ≦50 ng/dL total testosterone by Day 60. Secondary efficacy endpoints evaluated included serum concentrations of free testosterone, PSA, SHBG, safety and tolerability of Compound IV, incidence and frequency of hot flashes, serum bone turnover markers [bone specific alkaline phosphatase (BSAP) and c-terminal telopeptide (CTX)] and IGF-1 levels, an indicator of insulin resistance.
# All serum hormone and PSA measurements were performed by a central laboratory utilizing standard techniques. Serum total testosterone concentrations were determined using a validated liquid chromatography-tandem mass spectrometry (LC/MS-MS) method. This is the assay platform that is current utilized for total testosterone by most major laboratories and provides values which are more accurate at the lower levels of testosterone found in women, children, hypogonadal men, and men on ADT. The percent free testosterone was determined by equilibrium dialysis. Free testosterone concentrations were calculated as the product of (total testosterone by LC/MS/MS) and (free fraction by equilibrium dialysis). This combination of approaches is considered to be the gold standard with which to measure free testosterone with excellent accuracy and validity (sensitivity and specificity).
# Hot flash assessments were performed utilising a standard instrument to measure the frequency and severity of hot flashes, and data were compiled at baseline, Day 28 and Day 90. The men reported as experiencing hot flashes were those indicating any in the period between the respective time point and the prior patient visit. CTX (pg/ml) assayed by an electrochemiluminescent immunoassay and BSAP (U/L) assayed by immunoenzymatic methodology were measured as indicators of bone turnover. Serum IGF-1 levels were measured by liquid chromatography/mass spectrometry (LC/MS) at the same time each day (within a +/−60 minute window).
# Simple descriptive statistics and graphics were used to present the characteristics of the study population. One way Analysis of Variance (PROC GLM with CONTRAST statement) methods were used to compare total testosterone percent change from baseline to Day 28, Day 60 and Day 90. Kaplan Meier survival analysis was used to estimate the proportion of subjects that reached castrate levels by Day 60 in each treatment arm based upon time to total testosterone of ≦50 ng/dL. Fisher Exact tests were used to compare rate of hot flashes at Day 28 and Day 90 among the two Compound IV and the leuprolide arms. One way ANOVA methods were also used to compare CTX and BSAP changes from baseline to Day 120 between treatment groups. The intent-to-treat (ITT) population consisted of all randomized patients who received at least one dose of Compound IV or leuprolide depot. […]
# [3] = 1000 mg Compound IV, baseline to Day 120
# [4] = preliminary analysis, Compound IV 2000 mg daily (41 assessed) or Lupron Depot (49 assessed)
# T1 sequence (P42330 whole entry): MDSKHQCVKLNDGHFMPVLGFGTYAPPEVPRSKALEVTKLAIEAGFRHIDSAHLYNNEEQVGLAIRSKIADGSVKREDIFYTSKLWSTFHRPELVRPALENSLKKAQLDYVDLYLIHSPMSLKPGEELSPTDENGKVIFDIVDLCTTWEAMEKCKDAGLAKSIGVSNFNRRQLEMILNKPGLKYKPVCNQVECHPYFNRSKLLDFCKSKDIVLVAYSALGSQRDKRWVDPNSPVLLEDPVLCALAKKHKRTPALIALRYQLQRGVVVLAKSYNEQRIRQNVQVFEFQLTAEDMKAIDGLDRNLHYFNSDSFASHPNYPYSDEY
smiles,measurement,setting,value
"O=C(c1ccc(O)c(F)c1)N(c1ccc(O)cc1)c1ccc(F)cc1 [Compound IV, 3-fluoro-N-(4-fluorophenyl)-4-hydroxy-N-(4-hydroxyphenyl)benzamide]",Procoagulatory activity compared with DES,human platelets,much lower procoagulatory activity than DES
same,Effect on 17β-HSD5 enzyme activity,Human 17β-HSD5,partial inhibitory effect
same,Effect on hot flashes (tail skin temperature after naloxone),[1],attenuated hot flashes
same,Median free testosterone in castrate men (total testosterone ≦50 ng/dL),[2]; 1000 mg,0.4 pg/mL
same,Castrated (%) at Day 28,[2]; 1000 mg Compound IV (n = 53),49%
same,Castrated (%) on both Day 28 and Day 60,[2]; 1000 mg Compound IV (n = 53),30%
same,No. Castrated at Day 28,[2]; 1000 mg Compound IV (n = 53),26
same,No. Castrated on both Day 28 and Day 60,[2]; 1000 mg Compound IV (n = 53),16
same,Subjects that achieved castration (total T<50 ng/dL) by Day 60,[2]; 1000 mg Compound IV arm,43.4%
same,Bone specific alkaline phosphatase (BSAP) percentage change,[2]; [3],−26.3%
same,C-terminal telopeptides (CTX) percentage change,[2]; [3],−55.3%
same,% Reduction on PSA at Day 28,[2]; 1000 mg Compound IV,84%
same,Mean Free T at Day 28,[2]; 1000 mg Compound IV,1.0 ± 0.8 pg/mL
same,Mean Total T at Day 28,[2]; 1000 mg Compound IV,25 ± 15 ng/dL
same,Castration (%),"[2]; 1000 mg QD, D28",50%
same,Castration (%),"[2]; 1000 mg QD, D60",59.4%
same,Castration (%),"[2]; 1000 mg QD, Ever",61.5%
same,Median free testosterone,[2]; 1000 mg arm,0.4 pg/mL
same,Subjects with a venous thromboembolism event (VTE),[2]; 1000 mg dose arm,9 subjects
same,Median increase in SHBG,[2]; 1000 mg,495%
same,Median free testosterone in castrate men (total testosterone ≦50 ng/dL),[2]; 2000 mg,0.3 pg/mL
same,Castrated (%) at Day 28,[2]; 2000 mg Compound IV (n = 55),56%
same,Castrated (%) on both Day 28 and Day 60,[2]; 2000 mg Compound IV (n = 55),51%
same,No. Castrated at Day 28,[2]; 2000 mg Compound IV (n = 55),31
same,No. Castrated on both Day 28 and Day 60,[2]; 2000 mg Compound IV (n = 55),28
same,Subjects that achieved castration (total T<50 ng/dL) by Day 60,[2]; 2000 mg Compound IV arm,63.6%
same,Bone specific alkaline phosphatase (BSAP) percentage change,"[2]; 2000 mg Compound IV, baseline to Day 120",−22.6%
same,% Reduction on PSA at Day 28,[2]; 2000 mg Compound IV,73%
same,Mean Free T at Day 28,[2]; 2000 mg Compound IV,0.7 ± 0.7 pg/mL
same,Mean Total T at Day 28,[2]; 2000 mg Compound IV,19 ± 9 ng/dL
same,Castration (%),"[2]; 2000 mg QD, D28",31%
same,Castration (%),"[2]; 2000 mg QD, D60",79.6%
same,Castration (%),"[2]; 2000 mg QD, Ever",84.6%
same,Median free testosterone,[2]; 2000 mg arm,0.3 pg/mL
same,Subjects with a venous thromboembolism event (VTE),[2]; 2000 mg dose arm,2 subjects
same,Median increase in SHBG,[2]; 2000 mg,583%
same,Percentage of treated ADT naïve patients (castrate population) below the Free T cutoff of 0.5 pg/ml,[2]; 28 days on therapy,28.3%
same,Percentage of treated ADT naïve patients (castrate population) below the Free T cutoff of 0.5 pg/ml,[2]; 45 days on therapy,50.9%
same,Percentage of treated ADT naïve patients (castrate population) below the Free T cutoff of 0.5 pg/ml,[2]; 120 days on therapy,58.1%
same,Rate of hot flashes relative to that in the leuprolide treated group,[2]; Day 90 visits,≤ 25%
same,PSA level reached on average,[2]; Study 2 (FIG. 35),< 0.2 µg/L
same,Change in serum IGF-1 level,"[2]; Study 2, 1000 mg daily (n = 53), Day 1 to Day 28",-75.2 ± 25.6 ng/mL
same,Change in serum IGF-1 level,"[2]; Study 2, 1000 mg daily (n = 53), Day 1 to Day 60",-73.7 ± 29.2 ng/mL
same,Change in serum IGF-1 level,"[2]; Study 2, 1000 mg daily (n = 53), Day 1 to Day 90",-73.1 ± 25.1 ng/mL
same,Change in serum IGF-1 level,"[2]; Study 2, 1000 mg daily (n = 53), Day 1 to Day 360",-35.2 ± 40.5 ng/mL
same,Change in serum IGF-1 level,"[2]; Study 2, 2000 mg daily (n = 55), Day 1 to Day 28",-78.6 ± 38.3 ng/mL
same,Change in serum IGF-1 level,"[2]; Study 2, 2000 mg daily (n = 55), Day 1 to Day 60",-77.7 ± 39.9 ng/mL
same,Change in serum IGF-1 level,"[2]; Study 2, 2000 mg daily (n = 55), Day 1 to Day 90",-72.7 ± 24.9 ng/mL
same,Change in serum IGF-1 level,"[2]; Study 2, 2000 mg daily (n = 55), Day 1 to Day 360",-33.4 ± 45.2 ng/mL
same,Mean SHBG for PSA responders (>50% reduction),"[2]; Study 2, all patients (FIG. 37)",399%+85
same,Reduction in reported hot flashes,[2]; day 90,greater than 4 fold
same,Increase in SHBG levels in men that responded,[2]; in vivo,200-600%
same,Number of Subjects that Experienced a Hot Flash,[2]; [4],2
same,Percent of Subjects that Experienced a Hot Flash,[2]; [4],5%
same,Induction of baseline SHBG,"[2]; treatment naive patients (Study 2 and Study 5), after 28 days",150-700%
same,Patients with at least a 50% reduction in % FreeT,"[2]; treatment naïve patients (Studies 2 and 5), after 7 days of therapy",81%
same,Patients with both at least a 50% reduction in % FreeT and a 50% reduction in PSA from baseline,"[2]; treatment naïve patients (Studies 2 and 5), after a month",80%
same,Molar ratio of SHBG to Total T relative to leuprolide acetate treated patients,"[2]; treatment naïve patients, after 28 days",3-7 fold
same,Drop in % FreeT,"[2]; treatment naïve patients, day 28",70%
